Reference: PubChem BioAssay (NCI)
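Step 1: Grow cells in 96-well plates. Step 2: Expose to compound for 48 hours at 5 concentrations. Step 3: Interpolate endpoints linearly; if unreached, use highest concentration. GI50 = concentration required for 50% inhibition of growth. At the TGI there is no net growth.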

Tests used:
Assay in all cases: NCI anticancer screen, dose series, 48 h
RXF 393 renal = system: RXF 393 renal
TK-10 renal = system: TK-10 renal
SW-620 colon = system: SW-620 colon
NCI-H460 lung = system: NCI-H460 lung
DU-145 prostate = system: DU-145 prostate
SF-539 CNS = system: SF-539 CNS
UACC-257 melanoma = system: UACC-257 melanoma
HCC-2998 colon = system: HCC-2998 colon
CAKI-1 renal = system: CAKI-1 renal
MDA-MB-435 = system: MDA-MB-435
OVCAR-3 ovarian = system: OVCAR-3 ovarian
A498 renal = system: A498 renal
COLO 205 colon = system: COLO 205 colon
SF-268 CNS = system: SF-268 CNS
HT29 colon = system: HT29 colon
SK-MEL-2 melanoma = system: SK-MEL-2 melanoma
EKVX NSCLC = system: EKVX NSCLC
MDA-MB-231 breast = system: MDA-MB-231 breast
SNB-19 CNS = system: SNB-19 CNS
OVCAR-4 ovarian = system: OVCAR-4 ovarian
UACC-62 melanoma = system: UACC-62 melanoma
BT-549 breast = system: BT-549 breast
SK-OV-3 ovarian = system: SK-OV-3 ovarian
OVCAR-8 ovarian = system: OVCAR-8 ovarian
MCF7 breast = system: MCF7 breast
786-0 renal = system: 786-0 renal
SK-MEL-28 melanoma = system: SK-MEL-28 melanoma
HCT-116 colon = system: HCT-116 colon
HOP-62 NSCLC = system: HOP-62 NSCLC
T-47D breast = system: T-47D breast
HOP-92 NSCLC = system: HOP-92 NSCLC
M14 melanoma = system: M14 melanoma
SF-295 CNS = system: SF-295 CNS
SNB-75 CNS = system: SNB-75 CNS
RPMI-8226 leukemia = system: RPMI-8226 leukemia
UO-31 renal = system: UO-31 renal
HS 578T breast = system: HS 578T breast
LOX IMVI melanoma = system: LOX IMVI melanoma
SR leukemia = system: SR leukemia
PC-3 prostate = system: PC-3 prostate
U251 CNS = system: U251 CNS
NCI/ADR-RES ovarian = system: NCI/ADR-RES ovarian
K-562 leukemia = system: K-562 leukemia
OVCAR-5 ovarian = system: OVCAR-5 ovarian
MOLT-4 leukemia = system: MOLT-4 leukemia
KM12 colon = system: KM12 colon
ACHN renal = system: ACHN renal
IGROV1 ovarian = system: IGROV1 ovarian
A549 NSCLC = system: A549 NSCLC
HCT-15 colon = system: HCT-15 colon
HL-60(TB) leukemia = system: HL-60(TB) leukemia
CCRF-CEM leukemia = system: CCRF-CEM leukemia
SK-MEL-5 melanoma = system: SK-MEL-5 melanoma
SN12C renal = system: SN12C renal
NCI-H23 lung = system: NCI-H23 lung
NCI-H226 lung = system: NCI-H226 lung
MALME-3M melanoma = system: MALME-3M melanoma

Structure (SMILES): CC(C)c1ccc(Cn2ccc3c4c(N)nc(NC5CC5)nc4ccc32)cc1
- GI50 (RXF 393 renal): 0.172 µM
- TGI (RXF 393 renal): 0.58 µM
- GI50 (TK-10 renal): 1.23 µM
- TGI (TK-10 renal): 2.57 µM
- GI50 (SW-620 colon): 0.326 µM
- TGI (SW-620 colon): 1.32 µM
- GI50 (NCI-H460 lung): 0.198 µM
- TGI (NCI-H460 lung): 1.07 µM
- GI50 (DU-145 prostate): 0.399 µM
- TGI (DU-145 prostate): 1.38 µM

Structure (SMILES): O=c1[nH]/c(=C/c2ccc(OCc3ccccc3)cn2)c(=O)[nH]/c1=C/c1ccccc1
- TGI (SF-539 CNS): > 67 µM
- TGI (UACC-257 melanoma): > 100 µM
- TGI (HCC-2998 colon): 0.521 µM
- TGI (CAKI-1 renal): > 100 µM
- TGI (MDA-MB-435): 0.567 µM
- TGI (OVCAR-3 ovarian): > 78.6 µM
- TGI (RXF 393 renal): > 100 µM
- TGI (A498 renal): > 100 µM
- TGI (COLO 205 colon): > 25.4 µM
- TGI (TK-10 renal): > 100 µM
- TGI (SF-268 CNS): > 100 µM
- TGI (SW-620 colon): > 100 µM
- TGI (HT29 colon): > 100 µM
- TGI (NCI-H460 lung): > 100 µM
- TGI (SK-MEL-2 melanoma): > 100 µM
- TGI (EKVX NSCLC): > 100 µM
- TGI (MDA-MB-231 breast): > 100 µM
- TGI (SNB-19 CNS): > 100 µM
- TGI (OVCAR-4 ovarian): > 100 µM
- TGI (UACC-62 melanoma): > 100 µM
- TGI (BT-549 breast): > 100 µM
- TGI (SK-OV-3 ovarian): > 100 µM
- TGI (OVCAR-8 ovarian): > 80.9 µM
- TGI (MCF7 breast): > 100 µM
- TGI (786-0 renal): > 100 µM
- TGI (SK-MEL-28 melanoma): > 100 µM
- TGI (HCT-116 colon): > 100 µM
- TGI (HOP-62 NSCLC): > 100 µM
- TGI (T-47D breast): > 100 µM
- TGI (HOP-92 NSCLC): > 100 µM
- TGI (M14 melanoma): > 100 µM
- TGI (SF-295 CNS): > 100 µM
- TGI (SNB-75 CNS): 0.0706 µM
- TGI (RPMI-8226 leukemia): > 100 µM
- TGI (UO-31 renal): > 100 µM
- TGI (HS 578T breast): > 100 µM
- TGI (LOX IMVI melanoma): > 100 µM
- TGI (SR leukemia): 14.4 µM
- TGI (PC-3 prostate): > 100 µM
- TGI (U251 CNS): > 91.6 µM
- TGI (NCI/ADR-RES ovarian): 0.229 µM
- TGI (K-562 leukemia): > 100 µM
- TGI (OVCAR-5 ovarian): > 100 µM
- TGI (MOLT-4 leukemia): > 100 µM
- TGI (KM12 colon): > 100 µM
- TGI (ACHN renal): > 100 µM
- TGI (IGROV1 ovarian): > 24.6 µM
- TGI (A549 NSCLC): > 100 µM
- TGI (HCT-15 colon): > 46.4 µM

Structure (SMILES): COc1cc(/C=C/C(=O)c2c(C)nc3ccccc3c2/C=C/c2ccccc2)cc(OC)c1OC
- GI50 (HT29 colon): 1.87 µM
- TGI (HT29 colon): > 100 µM
- GI50 (NCI-H460 lung): 1.86 µM
- TGI (NCI-H460 lung): 4.96 µM
- GI50 (MDA-MB-231 breast): 2.15 µM
- TGI (MDA-MB-231 breast): > 100 µM
- GI50 (OVCAR-8 ovarian): 1.78 µM
- TGI (OVCAR-8 ovarian): > 100 µM
- GI50 (HL-60(TB) leukemia): 1.63 µM
- TGI (HL-60(TB) leukemia): 6 µM
- GI50 (HCT-116 colon): 0.514 µM
- TGI (HCT-116 colon): 1.91 µM
- GI50 (RPMI-8226 leukemia): 2.21 µM
- TGI (RPMI-8226 leukemia): > 100 µM
- GI50 (HS 578T breast): 4.2 µM
- TGI (HS 578T breast): > 100 µM
- GI50 (LOX IMVI melanoma): 1.42 µM
- TGI (LOX IMVI melanoma): 2.78 µM
- GI50 (SR leukemia): 1.14 µM
- TGI (SR leukemia): 6.54 µM
- GI50 (CCRF-CEM leukemia): 2.09 µM
- TGI (CCRF-CEM leukemia): > 100 µM
- GI50 (K-562 leukemia): 0.827 µM
- TGI (K-562 leukemia): > 100 µM
- GI50 (MOLT-4 leukemia): 2.21 µM
- TGI (MOLT-4 leukemia): 8.61 µM

Structure (SMILES): Cn1c(=O)c2[nH]c(N/N=N/c3nncs3)nc2n(C)c1=O
- TGI (SF-539 CNS): > 100 µM
- TGI (UACC-257 melanoma): > 100 µM
- TGI (HCC-2998 colon): > 100 µM
- TGI (CAKI-1 renal): > 100 µM
- TGI (MDA-MB-435): > 100 µM
- TGI (OVCAR-3 ovarian): > 100 µM
- TGI (RXF 393 renal): > 100 µM
- TGI (A498 renal): > 100 µM
- TGI (COLO 205 colon): > 100 µM
- TGI (TK-10 renal): > 100 µM
- TGI (SF-268 CNS): > 100 µM
- TGI (SW-620 colon): > 100 µM
- TGI (HT29 colon): > 100 µM
- TGI (NCI-H460 lung): > 100 µM
- TGI (SK-MEL-2 melanoma): > 100 µM
- TGI (SK-MEL-5 melanoma): > 100 µM
- TGI (DU-145 prostate): > 100 µM
- TGI (EKVX NSCLC): > 100 µM
- TGI (MDA-MB-231 breast): > 100 µM
- TGI (SNB-19 CNS): > 100 µM
- TGI (OVCAR-4 ovarian): > 100 µM
- TGI (UACC-62 melanoma): > 100 µM
- TGI (BT-549 breast): > 100 µM
- TGI (SK-OV-3 ovarian): > 100 µM
- TGI (SN12C renal): > 100 µM
- TGI (OVCAR-8 ovarian): > 100 µM
- TGI (MCF7 breast): > 100 µM
- TGI (786-0 renal): > 100 µM
- TGI (SK-MEL-28 melanoma): > 100 µM
- TGI (HCT-116 colon): > 100 µM
- TGI (NCI-H23 lung): > 100 µM
- TGI (HOP-62 NSCLC): > 100 µM
- TGI (T-47D breast): > 100 µM
- TGI (HOP-92 NSCLC): > 100 µM
- TGI (M14 melanoma): > 100 µM
- TGI (SF-295 CNS): > 100 µM
- TGI (UO-31 renal): > 100 µM
- TGI (HS 578T breast): > 100 µM
- TGI (LOX IMVI melanoma): > 100 µM
- TGI (CCRF-CEM leukemia): > 100 µM
- TGI (PC-3 prostate): > 100 µM
- TGI (U251 CNS): > 100 µM
- TGI (NCI/ADR-RES ovarian): > 100 µM
- TGI (K-562 leukemia): > 100 µM
- TGI (OVCAR-5 ovarian): > 100 µM
- TGI (MOLT-4 leukemia): > 100 µM
- TGI (KM12 colon): > 100 µM
- TGI (ACHN renal): > 100 µM
- TGI (IGROV1 ovarian): > 100 µM
- TGI (A549 NSCLC): > 100 µM
- TGI (HCT-15 colon): > 100 µM

Structure (SMILES): Cc1ccc(S(=O)(=O)NC(=O)Nc2nnc(S(N)(=O)=O)s2)cc1
- TGI (SF-539 CNS): > 100 µM
- TGI (HCC-2998 colon): > 100 µM
- TGI (CAKI-1 renal): > 100 µM
- TGI (MDA-MB-435): > 100 µM
- TGI (OVCAR-3 ovarian): > 100 µM
- TGI (RXF 393 renal): > 100 µM
- TGI (A498 renal): > 100 µM
- TGI (COLO 205 colon): > 100 µM
- TGI (TK-10 renal): > 100 µM
- TGI (SF-268 CNS): > 100 µM
- TGI (NCI-H226 lung): > 100 µM
- TGI (SW-620 colon): > 100 µM
- TGI (HT29 colon): > 100 µM
- TGI (NCI-H460 lung): > 100 µM
- TGI (MALME-3M melanoma): > 100 µM
- TGI (SK-MEL-2 melanoma): > 100 µM
- TGI (SK-MEL-5 melanoma): > 100 µM
- TGI (DU-145 prostate): > 100 µM
- TGI (EKVX NSCLC): > 100 µM
- TGI (MDA-MB-231 breast): > 100 µM
- TGI (SNB-19 CNS): > 100 µM
- TGI (OVCAR-4 ovarian): > 100 µM
- TGI (UACC-62 melanoma): > 100 µM
- TGI (SK-OV-3 ovarian): > 100 µM
- TGI (OVCAR-8 ovarian): > 100 µM
- TGI (HL-60(TB) leukemia): > 100 µM
- TGI (MCF7 breast): > 100 µM
- TGI (786-0 renal): > 100 µM
- TGI (HCT-116 colon): > 100 µM
- TGI (NCI-H23 lung): > 100 µM
- TGI (HOP-62 NSCLC): > 100 µM
- TGI (HOP-92 NSCLC): > 100 µM
- TGI (M14 melanoma): > 100 µM
- TGI (SF-295 CNS): > 100 µM
- TGI (SNB-75 CNS): > 100 µM
- TGI (RPMI-8226 leukemia): > 100 µM
- TGI (UO-31 renal): > 100 µM
- TGI (HS 578T breast): > 100 µM
- TGI (LOX IMVI melanoma): > 100 µM
- TGI (SR leukemia): > 100 µM
- TGI (CCRF-CEM leukemia): > 100 µM
- TGI (PC-3 prostate): > 100 µM
- TGI (U251 CNS): > 100 µM
- TGI (NCI/ADR-RES ovarian): > 100 µM
- TGI (K-562 leukemia): > 100 µM
- TGI (OVCAR-5 ovarian): > 100 µM
- TGI (MOLT-4 leukemia): > 100 µM
- TGI (KM12 colon): > 100 µM
- TGI (ACHN renal): > 100 µM
- TGI (A549 NSCLC): > 100 µM
- TGI (HCT-15 colon): > 100 µM
